# From EPA's ToxValDB 9.5 (doi:10.2903/j.efsa.2010.1721)
# Assays:
# Apis mellifera = details: acute; duration: 48 hours; oral; unspecified; mortality
# Daphnia magna = details: chronic/long-term; duration: 21 days; reproduction
# Colinus virginianus = details: for LD50: acute, oral, mortality
# Mus musculus = details: acute; oral; mortality
# Oryctolagus sp. = details: reproduction developmental; body weight
# Tagia sp. = details: acute; duration: 14 days; mortality
# Anas platyrhynchos = details: oral, mortality
# Canidae = details: chronic; duration: 1 years; oral; Dog Other; organ weight
# Aphidius rhopalosiphi = assay: LR50; higher = less toxic; details: not reported; mortality
# Typhlodromus pyri = assay: LR50; higher = less toxic; details: not reported; mortality
smiles,measurement,setting,value
CCOc1ccc(NC(=O)OC(C)C)cc1OCC [Diethofencarb],LC50,"Oncorhynchus mykiss; acute, duration: 96 hours, mortality",> 10 µg/mL
same,NOEC,"Oncorhynchus mykiss; chronic/long-term, duration: 88 days, growth",0.072 mg/L
same,LD50,Apis mellifera,> 100 µg/piece
same,NOEC,Daphnia magna,0.032 mg/L
same,LD50,Colinus virginianus; diet,> 1810 mg/kg-day
same,LD50,Colinus virginianus,> 2250 mg/kg-day
same,NOEL,Colinus virginianus; reproduction developmental,78.7 mg/kg-day
same,LD50,Mus musculus,> 5000 mg/kg-day
same,NOEL,Oryctolagus sp.,300 mg/kg-day
same,LC50,Tagia sp.,> 1000 mg/kg
same,LD50,"Rattus norvegicus; acute, oral, mortality",> 5000 mg/kg-day
same,NOAEL,"Rattus norvegicus; chronic, duration: 2 years, organ weight",42.7 mg/kg-day
same,LD50,"Anas platyrhynchos; acute, unspecified",> 2250 mg/kg-day
same,LD50,"Anas platyrhynchos; short-term, feed",> 1630 mg/kg-day
same,NOAEL,Canidae,50 mg/kg-day
same,LR50,Aphidius rhopalosiphi,> 1500 g/ha
same,LR50,Typhlodromus pyri,7.2 g/ha
